# Legend:
# [1] = biological target: T1, cytochrome c oxidase (Rattus norvegicus, UniProt P05503); assay: NO generation and respiration in isolated liver mitochondria (NO and O2 electrodes); type: biochemical; conditions: succinate
# T1 construct: from tissue; host or cells: rat liver mitochondria
# Procedure: FIG. 9 is a series of traces and graphs showing membrane potential-dependent MitoSNAP mitochondrial uptake and NO^• generation. (a-d) Liver mitochondria were incubated in KCl medium supplemented with rotenone in a stirred 3 ml chamber and electrodes were used to measure the concentrations of O2 and NO^• simultaneously. Where indicated succinate (10 mM), OxyHb (5 μM) or FCCP (500 nM) were added. For (a) and (b) 2 mg mitochondrial protein/ml and 20 μM MitoSNAP (a) or SNAP (b) were used. For (c) and (d) 0.5 mg mitochondrial protein/ml and 5 μM MitoSNAP were used. There was no effect of 5 μM MitoNAP on respiration or NO^• production. All traces are from typical experiments repeated at least twice. (e-f) Mitochondria (1 mg protein) were incubated in 1 ml KCl medium without neocuproine or DTPA, supplemented with rotenone and succinate in the absence (e) or presence (f) of FCCP (500 nM). Mitochondria were then pelleted by centrifugation (10,000×g) then aliquots of the supernatant (700 μl) were mixed with 700 μl 0.1% TFA and analyzed by RP-HPLC. The amount of MitoSNAP and MitoNAP were calculated as the percentage of their peak areas relative to the sum of both peak areas.
# Nitrite, nitric oxide and S-nitrosothiol measurements. Nitrite was analyzed by the Griess assay (Molecular Probes). Nitric oxide was measured using an NO^• electrode (World Precision Instruments Ltd, UK) connected to an Apollo 4000 Free Radical Analyser. The electrode was inserted into a stirred, sealed 3 ml chamber with a Clark type O2 electrode (Rank Brothers, UK) built into its base and was thermostatted at 37° C. The NO^• electrode was calibrated by adding SNAP to argon-purged, saturated CuCl. OxyHb was prepared by reduction of bovine methemoglobin with sodium dithionite. Protein S-nitrosothiols were measured using a chemiluminescence assay in an EcoMedics CLD 88 Exhalyzer (Annex, Herts, UK) (Feelisch, M. et al. Concomitant S—, N—, and heme-nitros(yl)ation in biological tissues and fluids: implications for the fate of NO in vivo. FASEB. J. 16, 1775-85 (2002)).
# Mitochondrial incubations were usually in KCl buffer (120 mM KCl, 10 mM HEPES, 1 mM EGTA, 100 μM N,N-bis(2-bis[carboxymethyl]aminoethyl) glycine (DTPA) and 10 μM neocuproine, pH 7.2) with 10 mM succinate and 4 μg/ml rotenone in the dark at 37° C., unless stated otherwise. An electrode selective for the TPP moiety of MitoSNAP and MitoNAP was made and used as described previously (Asin-Cayuela, J., Manas, A. R., James, A. M., Smith, R. A. & Murphy, M. P. Fine-tuning the hydrophobicity of a mitochondria-targeted antioxidant. FEBS Letts. 571, 9-16 (2004)). Respiration rates were measured in a Clark type O2 electrode (Rank Brothers, UK). To measure GSH and GSSG, mitochondria (1 mg protein/ml) were incubated with 0-10 μM MitoSNO1 or MitoNAP for 10 min, pelleted by centrifugation and the GSH and GSSG contents assessed by the recycling assay (Scarlett, J. L., Packer, M. A., Porteous, C. M. & Murphy, M. P. Alterations to glutathione and nicotinamide nucleotides during the mitochondrial permeability transition induced by peroxynitrite. Biochem. Pharmacol. 52, 1047-1055 (1996)). The measurement of exposed mitochondrial protein thiols is described below.
# Following its accumulation within mitochondria MitoSNAP interacted with the GSH-rich matrix to release NO^• which then affected respiration by competitively inhibiting O2 consumption at cytochrome c oxidase. […] Mitochondria were incubated with the complex I inhibitor rotenone in the absence of substrate to prevent Δψ generation, and addition of 20 μM MitoSNAP produced a small amount of NO^•, presumably due to MitoSNAP diffusion into the mitochondrial matrix and reaction with GSH (FIG. 9a).
# To explore further the Δψ-dependence of NO^• production by MitoSNAP, studies with decreased concentrations (5 μM) and fewer mitochondria (0.5 mg protein/ml) were undertaken (FIGS. 9c & d). […]
# [2] = tested on: endothelium-denuded rat small mesenteric artery; assay: Vasorelaxation of endothelium-denuded rat small mesenteric artery; conditions: logistic fit; for EC50: Rattus norvegicus, precontracted with methoxamine
# Procedure: FIG. 17 is a graph showing vasorelaxation of endothelium-denuded rat small mesenteric artery preparations by MitoSNAP and SNAP. To measure vessel relaxation in endothelium-denuded rat mesenteric artery male Wistar rats (250-350 g) were anesthetized with sodium pentobarbitone (60 mg/kg ip Sagatal, Rhone Merieux, Harlow, Essex UK). The mesentery was removed and placed in ice-cold, gassed (95% O2/5% CO2) Krebs-Henseleit buffer. […] Vessels were maintained at 37° C. in Krebs-Henseleit solution containing indomethacin (10 μM) and bubbled with 95% O2/5% CO2 and were allowed to equilibrate under zero tension for 60 min. After equilibration vessels were normalized to a tension equivalent that generated at 90% of the diameter of the vessel at 100 mm Hg^3. Vessels were precontracted with methoxamine and then sequential cumulative additions of test compounds were made to relax the vessels shielded from direct light. Relaxation of muscle tone are expressed as a percentage of relaxation of the initial tone. Data are means of four determination of MitoNAP and MitoSNAP and of 6 for SNAP. Data from the dose-response curves were fitted to a logistic curve, with the following parameters: […]
# [3] = 20 μM, 2 mg mitochondrial protein/ml
# [4] = 5 μM, 0.5 mg mitochondrial protein/ml
Structure (SMILES),"NO production by energized mitochondria [1, 3]","effect on respiration [1, 3]",EC50 [2],max. relaxation of induced tone [2],slope function (Hill slope) [2],"NO production by energized mitochondria [1, 4]","effect on respiration [1, 4]"
"CC(=O)NC(C(=O)O)C(C)(C)SN=O (racemic) [SNAP, S-nitroso-N-acetyl-DL-penicillamine, reference compound]",negligible,did not affect respiration,5.2 ± 0.5 nM,92±2%,1.0±0.1,,
"CC(=O)NC(C(=O)NCCCCC[P+](c1ccccc1)(c1ccccc1)c1ccccc1)C(C)(C)SN=O.CS(=O)(=O)[O-] (stereo not drawn) [MitoSNAP, [5-(2-acetylamino-3-methyl-3-nitrosothio-butyrylamino)-penty1]-triphenylphosphonium methanesulfonate]",rapid increase in NO^• production,respiration rate slowed,16.5 ± 1.1 nM,96±1%,1.3±0.1,dramatic increase in NO^• production,decreased respiration

# Reference: US9045505B2, “Nitric oxide donors” (University of Otago, priority 2006, dated 2015)
